From patent US20110236359A1 (priority 2007, published 2011) come the findings set out here.

Series [1] concerns vancomycin-resistant Enterococcus (VRE). Kind of series: VRE intestinal colonization (infection) model. In kind it is in vivo, CF-1 mice. The procedure:
The tubes containing fresh stool samples, collected from individual mice, were weighted, so that the weight of the feces could be deduced. Then, all the feces were diluted in […] of sterile saline, homogenized with a pestle, and serially diluted 10-fold in 0.1% peptone water. Finally, […] of each dilution were inoculated on the following media: MRS agar for detection of total lactic acid bacteria (LAB), Rogosa SL agar for selective detection of Lactobacillus spp., Reinforced Clostridium Medium (RCM) for quantification of total anaerobic and mesophilic bacteria, Baird-Parker agar (BPA) for selective detection of Staphylococcus spp., MacConkey agar for selective enumeration of Enterobacteriaceae, Enterococcosel agar for selective quantification of total Enterococcus spp. and finally Enterococcosel agar+20 μg/ml of vancomycin (Sigma) for detection and enumeration of VRE. A volume of 100 μl of the undiluted sample was also plated. MRS, Rogosa and RCM plates were incubated in anaerobic jars at 37° C. for 72 h while BPA, MacConkey and both Enterococcosel agar plates were incubated under aerobic conditions at 37° C. for 48 h. When negative results were obtained for Enterococcosel agar+20 μg/ml of vancomycin after 48 h of incubation, the plates were allowed to incubate for another 24 h. For statistical purposes, a value in CFU per gram that was based upon the weight of individual specimens was assigned for faeces without microorganisms.
A VRE intestinal colonization (infection) model was adapted from Donskey et al. 25-30 g CF-1 female mice (Charles River) were used. Daily subcutaneous administration of clindamycin (1.4 mg/d) for five days was used to disrupt the intestinal microbiota to induce VRE infection. Three days after the end of clindamycin administration, gastric inoculation of 250 μl of an overnight culture of VRE in BHI broth was used to infect the mice. Approximately 10^8 viable VRE was administered to the mice. Since the beginning of the antibiotic therapy, all groups of LAB-treated mice received once daily […] of 10^10 CFU/ml of Lc. lactis subsp. lactis MM19, P. acidilactici MM33 or P. acidilactici MM33A previously washed twice in sterile PBS. The mice received the LAB until the eighth day after the infection. Bacitracin (Sigma) antibiotic was administrated orally once daily during three days following the mice infection with VRE as 600 units/d diluted in […] of sterile PBS. This treatment was then discontinued and replaced by PBS. Stool samples were collected before the antibiotic administration and 1, 3, 6, 8 and 12 days after the VRE infection. Fecal concentrations of total culturable VRE were analyzed using selective media. This experiment was repeated twice using a total of eight mice per experimental group.

The test system of series [2] is Lactobacillus rhamnosus GG (ATCC 53103). Kind of series: Antibiotic MIC plates (resistance profile). In kind it is cell-based. Particulars: Lacticaseibacillus rhamnosus, ATCC53103. An excerpt:
(§1) The protocol was adapted from Delgado et al. (2005). Minimum Inhibitory Concentration (MIC) Plate (# GPN3F) and Anaerobe MIC Plate (# AN02B) were used to determine the antibiotic sensitivity and resistance profile of MM19 and MM33 according to the instructions of the manufacturer (Trek Diagnostic Systems; Nova Century, Burlington, ON, Canada).
(§2) Lactococcus lactis subsp. lactis MM19, Pediococcus acidilactici MM33 and Lactobacillus rhamnosus GG (ATCC 53103) from frozen glycerol stock were first inoculated in Lactobacilli MRS and incubated at 37° C. for 18 h. 100 μl of this culture were further incubated under the same conditions. This second culture was then inoculated on a MRS agar plate and incubated at 37° C. for 48 h under anaerobic conditions using GasPak Plus system (BD BBL, Sparks, Md., USA).

In series [3] the test system is Lactococcus lactis subsp. lactis MM19. Briefly: Antibiotic MIC plates (resistance profile). In kind it is cell-based. The conditions noted are these: Lactococcus lactis.
From the text: as §1, §2

Series [4] deals with Pediococcus acidilactici MM33. Kind of series: Antibiotic MIC plates (resistance profile). In kind it is cell-based. The conditions noted are these: Pediococcus acidilactici, MM33.
From the text: as §1, §2

In series [5] the test system is vancomycin-resistant Enterococcus faecium (VRE) clinical isolate. Kind of series: Agar well-diffusion assay against VRE clinical isolate. In kind it is cell-based. The conditions noted are these: all concentrations evaluated between 0 to 800 μg/ml; data not shown. Here is the method:
A clinical isolate of vancomycin-resistant Enterococcus faecium (VRE) was provided by the Centre Hospitalier de l'Université de Montréal microbiology laboratory (CHUM; Montreal, QC, Canada). […] The E. faecium strain was maintained in brain-heart infusion (BHI; Difco) for E. faecium containing 10% glycerol (w/v).
An agar well-diffusion assay was performed to verify the antimicrobial capacity of the neutralized cell-free supernatant (CFS) against a VRE clinical isolate. CFS was obtained as described before. A volume of 30 ml of cooled (45° C.) sterile BHI agar, containing 0.75% agar, was inoculated with 10^7 colony-forming units (CFU)/ml of VRE, poured into a […] standard Petri dishes and allowed to solidify for 30 minutes at room temperature. Wells of 6 mm in diameter were cut-out and […] of antimicrobial agent were placed into each well. All plates were then placed at 4° C. for 30 minutes, incubated at 37° C. for 24 h and examined for inhibition zones. Inhibition was scored positive if the width of the clearing zone around the well was 0.5 mm. Antibiotics were also evaluated with this method to ascertain the resistance of the VRE strain. Vancomycin and clindamycin (Sigma-Aldrich, Oakville, ON, Canada) were used in concentrations ranging from 0 to 800 μg/ml. […]
On the technique in general: Agar diffusion results depend on both activity and mobility in agar.

For series [6], the system named is L. monocytogenes HPB 2812 serotype ½a. Kind of series: Inhibitory activity of purified pediocin on growth in broth. Type of series: cell-based, Listeria monocytogenes. The conditions noted are these: for Viable counts: from 9.14. Here is the method: Different amounts of purified bacteriocin (0 to 800 AU/ml) were added to cultures of L. monocytogenes HPB 2812 serotype ½a in early exponential phase (grown for 6 h) and incubated at 37° C. Bacterial growth was monitored by measuring the bacterial population in a 1 ml sample taken every 2 h of incubation. These samples were serially diluted ten-fold in peptone water (0.1% w/v), pour-plated in BHI agar and then incubated at 37° C. for 24 h. Colonies were counted using Darkfield Quebec Colony Counter (American Optical, Scientific instrument division, Keene, Ohio, USA).

Positions of bridges follow the written chain, without caps; N, C: chain ends. Non-standard residues stand in square brackets, D forms with d. Residues, ends and D or L forms follow the SMILES beside them. *: point of attachment. Ileψ(thiazoline)Cys = CC[C@H](C)[C@H](N)C1=N[C@H](C(=O)*)CS1; dOrn = NCCC[C@@H](N)C(=O)O

For `CC[C@H](C)[C@H](N)C1=N[C@H](C(=O)N[C@@H](CC(C)C)C(=O)N[C@H](CCC(=O)O)C(=O)N[C@H](C(=O)N[C@H]2CCCCNC(=O)[C@H](CC(N)=O)NC(=O)[C@@H](CC(=O)O)NC(=O)[C@H](Cc3cnc[nH]3)NC(=O)[C@@H](Cc3ccccc3)NC(=O)[C@H]([C@@H](C)CC)NC(=O)[C@@H](CCCN)NC2=O)[C@@H](C)CC)CS1` [Bacitracin] ({Ileψ(thiazoline)Cys}-L[dE]IK[dOrn]I[dF]H[dD]N; lactam 4-C), the “Mice colonized with VRE (%)” value is 0% in series [1] (0 days after VRE infection); 100% in series [1] (1 day after VRE infection); 0% in series [1] (3 days after VRE infection); 100% in series [1] (6 days after VRE infection); 100% in series [1] (8 days after VRE infection); 100% in series [1] (12 days after VRE infection). Also, in series [1] (after the treatment was discontinued), the “VRE population (in words)” value was “reappeared”. Also, in series [1] (day 3, 600 units/d orally for three days after infection), the “Level of VRE in feces (in words)” value is reported as “undetectable level”.
As a reminder, the MIC is the lowest concentration that inhibits growth of the organism. Read a low MIC as greater potency. As to `CN[C@H](CC(C)C)C(=O)N[C@H]1C(=O)N[C@@H](CC(N)=O)C(=O)N[C@H]2C(=O)N[C@H]3C(=O)N[C@H](C(=O)N[C@H](C(=O)O)c4cc(O)cc(O)c4-c4cc3ccc4O)[C@H](O)c3ccc(c(Cl)c3)Oc3cc2cc(c3O[C@@H]2O[C@H](CO)[C@@H](O)[C@H](O)[C@H]2O[C@H]2C[C@](C)(N)[C@H](O)[C@H](C)O2)Oc2ccc(cc2Cl)[C@H]1O` [VAN, Vancomycin], the minimal inhibitory concentration (MIC) in series [2] was over 128 µg/mL; in series [3], under 1 µg/mL; in series [4] it was over 128 µg/mL. The “Sensitivity of the VRE clinical isolate (in words)” value in series [5] is reported as “resistant”.
As for “pediocin (KYYGNGVTCGKHSCSVDWGKATTCIINNGAMAWATGGHQGNHKC; Pediococcus acidilactici MM33)”, the “Decrease in viable CFU ml^−1” value in series [6] (at least 200 AU ml^−1 added into the culture medium) was “more than 99.9%”. The Viable counts in series [6] (two hours after addition of 100 AU ml^−1) is 8.7 log CFU ml^−1; in series [6] (two hours after addition of 200 AU ml^−1), 6.0 log CFU ml^−1; in series [6] (two hours after addition of 400 AU ml^−1), 4.36 log CFU ml^−1; in series [6] (two hours after addition of 800 AU ml^−1), 2.81 log CFU ml^−1.
